Assay results published in ChEMBL document CHEMBL4507267 (2021).

Columns and labels:
[1] = molecular target: Solute carrier family 2, facilitated glucose transporter member 2 (Homo sapiens, UniProt P11168); assay: Cell-based assay with CellTiter-Glo readout for ATP production with SLC2A2
[2] = tested on: Tyrosine-protein kinase ABL1 (Homo sapiens), P00519 [E255K]; conditions: Compound concentration 1000.0 nM
[3] = molecular target: Tyrosine-protein kinase Blk (Homo sapiens) (UniProt P51451); conditions: Compound concentration 1000.0 nM
[4] = molecular target: Cyclin-dependent kinase 4 (Homo sapiens) (UniProt P11802); conditions: Compound concentration 1000.0 nM
[5] = molecular target: Death-associated protein kinase 2 (Homo sapiens) (UniProt Q9UIK4); conditions: Compound concentration 1000.0 nM
[6] = tested on: Epidermal growth factor receptor (Homo sapiens), P00533 [G719C]; conditions: Compound concentration 1000.0 nM
[7] = molecular target: Ephrin type-B receptor 6 (Homo sapiens) (UniProt O15197); conditions: Compound concentration 1000.0 nM
[8] = molecular target: Serine/threonine-protein kinase MAK (Homo sapiens) (UniProt P20794); conditions: Compound concentration 1000.0 nM
[9] = molecular target: Dual specificity mitogen-activated protein kinase kinase 3 (Homo sapiens) (UniProt P46734); conditions: Compound concentration 1000.0 nM
[10] = molecular target: 3-phosphoinositide-dependent protein kinase 1 (Homo sapiens) (UniProt O15530); conditions: Compound concentration 1000.0 nM
[11] = molecular target: Serine/threonine-protein kinase WNK4 (Homo sapiens) (UniProt Q96J92); conditions: Compound concentration 1000.0 nM
[12] = molecular target: D(1A) dopamine receptor (Homo sapiens) (UniProt P21728); conditions: Compound concentration 10.0 uM
[13] = molecular target: Sodium-dependent noradrenaline transporter (Homo sapiens) (UniProt P23975); conditions: Compound concentration 10.0 uM
[14] = molecular target: Delta-type opioid receptor (Homo sapiens) (UniProt P41143); conditions: Compound concentration 10.0 uM
Histamine H1 receptor [15] = molecular target: T1, Histamine H1 receptor (Homo sapiens, UniProt P35367); conditions: Compound concentration 10.0 uM
[16] = molecular target: Muscarinic acetylcholine receptor M5 (Homo sapiens) (UniProt P08912); conditions: Compound concentration 10.0 uM
[17] = molecular target: Sigma intracellular receptor 2 (Homo sapiens) (UniProt Q5BJF2); conditions: Compound concentration 10.0 uM
Histamine H1 receptor [18] = molecular target: T1, Histamine H1 receptor; assay: GPCRScan assay: inhibition of H1; set-up: radioligand conc. used [nm] 0.6 – 2.0, parental cells stable HEK
Histamine H2 receptor = Histamine H2 receptor (Homo sapiens, UniProt P25021); assay: GPCRScan assay: inhibition of H2; set-up: radioligand conc. used [nm] 0.02 – 0.05, parental cells Stable HEK
[19] = molecular target: Solute carrier family 2, facilitated glucose transporter member 4 (Homo sapiens, UniProt P14672); assay: Cell-based assay with CellTiter-Glo readout for ATP production with SLC2A4
[20] = molecular target: 5-hydroxytryptamine receptor 7 (Homo sapiens) (UniProt P34969); conditions: Compound concentration 10.0 uM
Rattus norvegicus = species: Rattus norvegicus; conditions: Compound concentration 10.0 uM

Serine/threonine-protein kinase WNK4 (Homo sapiens), sequence (Q96J92 whole entry): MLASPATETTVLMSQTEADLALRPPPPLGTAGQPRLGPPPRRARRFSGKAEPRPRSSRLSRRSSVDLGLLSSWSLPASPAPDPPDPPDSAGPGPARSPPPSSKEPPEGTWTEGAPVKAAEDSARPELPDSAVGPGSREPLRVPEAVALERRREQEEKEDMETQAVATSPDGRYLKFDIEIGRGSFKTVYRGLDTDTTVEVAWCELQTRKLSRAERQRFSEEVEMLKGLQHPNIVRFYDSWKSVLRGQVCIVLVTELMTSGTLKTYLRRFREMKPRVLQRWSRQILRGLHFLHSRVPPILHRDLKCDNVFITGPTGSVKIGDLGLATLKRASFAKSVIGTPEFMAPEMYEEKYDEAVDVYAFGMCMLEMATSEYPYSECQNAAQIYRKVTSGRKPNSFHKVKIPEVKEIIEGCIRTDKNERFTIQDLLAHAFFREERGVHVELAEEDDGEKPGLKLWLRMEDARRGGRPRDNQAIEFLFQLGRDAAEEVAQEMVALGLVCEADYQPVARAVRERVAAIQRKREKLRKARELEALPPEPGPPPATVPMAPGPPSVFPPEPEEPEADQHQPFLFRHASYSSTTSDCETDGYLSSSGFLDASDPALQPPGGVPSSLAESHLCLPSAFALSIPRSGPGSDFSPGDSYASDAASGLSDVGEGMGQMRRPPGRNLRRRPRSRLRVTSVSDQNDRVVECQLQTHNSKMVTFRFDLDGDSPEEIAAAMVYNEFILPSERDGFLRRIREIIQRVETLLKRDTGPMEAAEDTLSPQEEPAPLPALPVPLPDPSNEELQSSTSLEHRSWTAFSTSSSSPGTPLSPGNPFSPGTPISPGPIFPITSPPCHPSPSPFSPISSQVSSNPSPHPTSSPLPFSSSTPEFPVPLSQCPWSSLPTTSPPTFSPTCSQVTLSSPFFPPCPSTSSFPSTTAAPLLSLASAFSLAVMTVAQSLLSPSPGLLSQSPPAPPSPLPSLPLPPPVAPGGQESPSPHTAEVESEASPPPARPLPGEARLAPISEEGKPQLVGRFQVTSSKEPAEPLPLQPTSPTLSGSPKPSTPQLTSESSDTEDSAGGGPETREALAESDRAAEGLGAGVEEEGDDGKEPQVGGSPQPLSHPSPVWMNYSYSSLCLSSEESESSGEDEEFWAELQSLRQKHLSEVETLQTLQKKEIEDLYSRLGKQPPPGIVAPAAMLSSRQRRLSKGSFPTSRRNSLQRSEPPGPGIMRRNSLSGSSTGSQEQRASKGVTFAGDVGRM
T1 sequence (P35367 whole entry): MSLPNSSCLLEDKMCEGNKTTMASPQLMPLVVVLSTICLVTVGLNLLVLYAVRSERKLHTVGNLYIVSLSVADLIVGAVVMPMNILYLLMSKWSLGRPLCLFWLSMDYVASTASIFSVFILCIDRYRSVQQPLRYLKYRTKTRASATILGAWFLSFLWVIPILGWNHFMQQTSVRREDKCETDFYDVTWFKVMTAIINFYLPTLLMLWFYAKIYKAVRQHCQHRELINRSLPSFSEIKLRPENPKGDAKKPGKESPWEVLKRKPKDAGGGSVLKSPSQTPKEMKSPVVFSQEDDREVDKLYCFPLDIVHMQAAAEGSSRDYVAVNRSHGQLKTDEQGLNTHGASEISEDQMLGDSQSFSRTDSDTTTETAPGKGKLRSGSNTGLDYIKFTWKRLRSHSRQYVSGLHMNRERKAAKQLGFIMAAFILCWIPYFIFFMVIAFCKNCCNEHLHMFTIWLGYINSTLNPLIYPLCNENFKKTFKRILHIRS
Tyrosine-protein kinase ABL1 (Homo sapiens), P00519 [E255K], sequence (P00519 whole entry E255K): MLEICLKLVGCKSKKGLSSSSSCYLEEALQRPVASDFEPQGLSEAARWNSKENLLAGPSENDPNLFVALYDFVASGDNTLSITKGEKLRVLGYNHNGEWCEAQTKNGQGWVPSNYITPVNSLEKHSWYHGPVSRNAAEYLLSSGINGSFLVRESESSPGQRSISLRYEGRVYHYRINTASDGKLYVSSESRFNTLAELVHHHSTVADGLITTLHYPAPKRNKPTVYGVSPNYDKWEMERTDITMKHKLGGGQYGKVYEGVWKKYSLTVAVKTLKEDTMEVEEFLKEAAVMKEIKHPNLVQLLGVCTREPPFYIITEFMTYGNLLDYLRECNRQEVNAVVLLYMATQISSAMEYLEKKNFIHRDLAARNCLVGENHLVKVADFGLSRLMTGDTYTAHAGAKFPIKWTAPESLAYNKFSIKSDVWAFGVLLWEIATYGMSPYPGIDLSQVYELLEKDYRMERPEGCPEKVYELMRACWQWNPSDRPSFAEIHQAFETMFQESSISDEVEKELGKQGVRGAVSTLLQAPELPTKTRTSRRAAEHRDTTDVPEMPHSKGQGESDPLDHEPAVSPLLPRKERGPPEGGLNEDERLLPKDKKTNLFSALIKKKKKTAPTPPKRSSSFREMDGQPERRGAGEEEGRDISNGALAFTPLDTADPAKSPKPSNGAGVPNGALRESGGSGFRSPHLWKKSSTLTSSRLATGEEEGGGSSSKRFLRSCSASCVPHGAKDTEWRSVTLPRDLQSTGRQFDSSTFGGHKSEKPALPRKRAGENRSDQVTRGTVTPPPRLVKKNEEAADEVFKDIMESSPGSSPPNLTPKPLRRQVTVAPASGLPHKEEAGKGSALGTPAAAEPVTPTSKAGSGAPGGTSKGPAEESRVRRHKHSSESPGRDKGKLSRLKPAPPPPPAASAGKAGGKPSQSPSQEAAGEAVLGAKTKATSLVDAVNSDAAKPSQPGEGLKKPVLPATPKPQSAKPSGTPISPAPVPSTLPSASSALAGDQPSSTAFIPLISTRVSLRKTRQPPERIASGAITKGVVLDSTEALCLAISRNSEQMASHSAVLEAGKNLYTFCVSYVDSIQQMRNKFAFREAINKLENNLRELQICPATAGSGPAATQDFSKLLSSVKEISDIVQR
Death-associated protein kinase 2 (Homo sapiens), sequence (Q9UIK4 whole entry, looked up): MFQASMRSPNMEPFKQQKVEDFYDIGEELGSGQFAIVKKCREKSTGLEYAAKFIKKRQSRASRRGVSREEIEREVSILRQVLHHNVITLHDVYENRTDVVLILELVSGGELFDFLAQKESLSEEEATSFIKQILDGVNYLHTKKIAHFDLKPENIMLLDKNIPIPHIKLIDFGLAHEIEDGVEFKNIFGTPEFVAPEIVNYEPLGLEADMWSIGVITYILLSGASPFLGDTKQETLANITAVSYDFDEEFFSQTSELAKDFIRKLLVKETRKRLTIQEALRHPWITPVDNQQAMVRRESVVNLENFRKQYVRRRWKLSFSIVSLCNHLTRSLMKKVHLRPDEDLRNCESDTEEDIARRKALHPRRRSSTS
Muscarinic acetylcholine receptor M5 (Homo sapiens), sequence (P08912 whole entry): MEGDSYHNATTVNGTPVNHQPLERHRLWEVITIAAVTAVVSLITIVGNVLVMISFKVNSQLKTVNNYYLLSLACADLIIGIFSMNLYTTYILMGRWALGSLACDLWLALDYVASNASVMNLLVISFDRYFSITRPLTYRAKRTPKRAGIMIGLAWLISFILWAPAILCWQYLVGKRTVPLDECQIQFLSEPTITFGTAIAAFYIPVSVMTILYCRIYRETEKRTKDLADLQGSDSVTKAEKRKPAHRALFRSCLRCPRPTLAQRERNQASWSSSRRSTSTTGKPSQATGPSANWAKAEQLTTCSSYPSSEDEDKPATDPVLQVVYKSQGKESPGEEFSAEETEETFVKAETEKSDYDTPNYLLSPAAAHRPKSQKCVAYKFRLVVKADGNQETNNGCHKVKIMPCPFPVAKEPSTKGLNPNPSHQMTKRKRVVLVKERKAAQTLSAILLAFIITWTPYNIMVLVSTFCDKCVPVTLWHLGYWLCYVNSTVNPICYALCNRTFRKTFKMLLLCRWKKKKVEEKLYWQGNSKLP
Ephrin type-B receptor 6 (Homo sapiens), sequence (O15197 whole entry): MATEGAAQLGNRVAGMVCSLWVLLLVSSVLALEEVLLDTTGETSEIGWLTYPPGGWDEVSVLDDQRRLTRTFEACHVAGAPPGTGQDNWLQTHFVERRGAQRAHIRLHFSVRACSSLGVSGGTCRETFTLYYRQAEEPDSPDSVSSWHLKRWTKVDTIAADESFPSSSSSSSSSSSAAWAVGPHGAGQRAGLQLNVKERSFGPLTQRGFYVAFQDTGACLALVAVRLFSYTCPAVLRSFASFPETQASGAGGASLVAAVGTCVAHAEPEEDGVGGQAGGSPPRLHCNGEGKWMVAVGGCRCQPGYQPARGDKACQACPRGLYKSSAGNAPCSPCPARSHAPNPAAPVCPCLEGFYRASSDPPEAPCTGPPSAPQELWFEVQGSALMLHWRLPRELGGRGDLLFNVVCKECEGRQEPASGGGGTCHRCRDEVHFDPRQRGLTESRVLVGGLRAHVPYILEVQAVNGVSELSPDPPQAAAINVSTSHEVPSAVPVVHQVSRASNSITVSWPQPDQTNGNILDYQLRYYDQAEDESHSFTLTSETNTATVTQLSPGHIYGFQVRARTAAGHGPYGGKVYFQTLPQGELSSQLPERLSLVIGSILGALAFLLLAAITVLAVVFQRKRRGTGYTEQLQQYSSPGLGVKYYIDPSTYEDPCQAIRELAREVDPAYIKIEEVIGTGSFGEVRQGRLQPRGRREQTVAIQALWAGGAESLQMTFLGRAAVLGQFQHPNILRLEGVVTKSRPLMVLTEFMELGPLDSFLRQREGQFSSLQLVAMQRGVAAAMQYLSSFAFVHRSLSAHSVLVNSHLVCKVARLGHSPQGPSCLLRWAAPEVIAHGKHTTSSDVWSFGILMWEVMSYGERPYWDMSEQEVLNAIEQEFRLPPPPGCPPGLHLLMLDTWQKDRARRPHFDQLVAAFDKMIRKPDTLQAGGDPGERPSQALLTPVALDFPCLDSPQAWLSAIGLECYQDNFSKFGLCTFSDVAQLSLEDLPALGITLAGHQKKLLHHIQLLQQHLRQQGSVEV
Sigma intracellular receptor 2 (Homo sapiens), sequence (Q5BJF2 whole entry): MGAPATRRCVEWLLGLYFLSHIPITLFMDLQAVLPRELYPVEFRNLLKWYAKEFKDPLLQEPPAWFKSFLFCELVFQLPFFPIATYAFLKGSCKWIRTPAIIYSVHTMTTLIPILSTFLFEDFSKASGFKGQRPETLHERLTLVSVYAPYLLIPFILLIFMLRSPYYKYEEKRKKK

| SMILES | residual activity [2] | residual activity [3] | residual activity [4] | residual activity [5] | residual activity [6] | residual activity [7] | residual activity [8] | residual activity [9] | residual activity [10] | residual activity [11] | inhibition [16] | other results |
| --- | --- | --- | --- | --- | --- | --- | --- | --- | --- | --- | --- | --- |
| Cc1c(NC(=O)c2cc(C(N)=O)nc3cc(F)ccc23)c(C(F)(F)F)nn1Cc1ccc(C(C)(C)C)cc1 [BAY-588] | 100% | 72% | 100% | 76% | 71% | 100% | 85% | 90% | 94% | 100% | 7.12% | IC50 [1]: > 10 µM (not active); inhibition [12]: 3.41%; inhibition [13]: -4.06%; inhibition [14]: -9.45%; inhibition (Histamine H1 receptor [15]): 46.1%; inhibition [17]: 40.7% |
| Cc1c(NC(=O)c2cc(C(N)=O)nc3cc(F)ccc23)c(C(F)(F)F)nn1Cc1ccc(C#N)cc1 [BAY-876] | 76% | 77% | 100% | 99% | 83% | 75% | 79% | 88% | 73% | -0% | 4.88% | Ki (Histamine H1 receptor [18]): 10 µM; Ki (Histamine H2 receptor): 8.08 µM; IC50 [19]: 270 nM (not active); inhibition [20]: 2.31%; inhibition (Rattus norvegicus): -1.8% |
